Structures are written as SMILES. A value given as a limit tells only on which side of the number the result lay.

Consider 15 compounds from US20170000133A1, “BENZOXABOROLE FUNGICIDES” (SYNGENTA PARTICIPATIONS AG, priority 2013, published 2017).

The test system of one data set is Sclerotinia sclerotiorum. The data set is described as follows: Sclerotinia sclerotiorum / liquid culture (cottony rot). The data set is classed as cell-based. The following applies: PDB potato dextrose broth, 24° C., 3-4 days after application, read-out: disease control (inhibition of growth determined visually). On the procedure: 18. Sclerotinia sclerotiorum/Liquid Culture (Cottony Rot): Mycelia fragments of a newly grown liquid culture of the fungus were directly mixed into nutrient broth (PDB potato dextrose broth). After placing a (DMSO) solution of the test compounds into a microtiter plate (96-well format) the nutrient broth containing the fungal material was added. The test plates were incubated at 24° C. and the inhibition of growth was determined visually 3-4 days after application.

In another data set the test system is Pythium ultimum. The data set is described as follows: Pythium ultimum / liquid culture (seedling damping off). The format is cell-based. The conditions noted are these: Globisporangium ultimum; 200 ppm; potato dextrose broth, 24° C., 2-3 days after application; read-out: disease control (inhibition of growth determined photometrically).
In data set [1] the test system is Monographella nivalis (Microdochium nivale). The data set is described as follows: Monographella nivalis (Microdochium nivale) / liquid culture (foot rot cereals). The data set is classed as cell-based. The following applies: PDB potato dextrose broth, 24° C., 4-5 days after application, read-out: disease control (inhibition of growth determined photometrically).
Data set [2] has as its system Mycosphaerella arachidis (Cercospora arachidicola). The data set is described as follows: Mycosphaerella arachidis (Cercospora arachidicola) / liquid culture (early leaf spot). The format is cell-based. The conditions noted are these: PDB potato dextrose broth, 24° C., 4-5 days after application, read-out: disease control (inhibition of growth determined photometrically). Summed up:
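Conidia from cryogenic storage mixed into potato dextrose broth and added to compound at 200 ppm in DMSO. Incubation at 24° C.; growth inhibition read photometrically 4-5 days after application.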

Data set [3] deals with Glomerella lagenarium (Colletotrichum lagenarium). The data set is described as follows: Glomerella lagenarium (Colletotrichum lagenarium) / liquid culture (anthracnose). The format is cell-based. The conditions noted are these: Colletotrichum orbiculare, PDB potato dextrose broth, 24° C., 3-4 days after application, read-out: disease control (inhibition of growth measured photometrically). Put shortly:
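Conidia of G. lagenarium from cryogenic storage were suspended in potato dextrose broth and added to test compound in DMSO at 200 ppm. Plates were incubated at 24° C, and growth inhibition was read photometrically 3-4 days after application.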

Data set [4] concerns Thanatephorus cucumeris (Rhizoctonia solani). In words: Thanatephorus cucumeris (Rhizoctonia solani) / liquid culture (foot rot, damping-off). The data set is classed as cell-based. The conditions noted are these: PDB potato dextrose broth, 24° C., 3-4 days after application, read-out: disease control (inhibition of growth determined photometrically). Summed up: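 Mycelial fragments from fresh liquid culture were suspended in potato dextrose broth and added to compound in DMSO at 200 ppm. After 3-4 days at 24 °C, growth inhibition was measured photometrically.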

The test system of the next data set is Gaeumannomyces graminis. In words: Gaeumannomyces graminis / liquid culture (take-all of cereals). The format is cell-based. The conditions noted are these: PDB potato dextrose broth, 24° C., 4-5 days after application, read-out: disease control (inhibition of growth determined photometrically). Summed up: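 Cryo-stored mycelial fragments in potato dextrose broth exposed to compound in DMSO at 200 ppm. Incubated at 24 °C; growth inhibition read photometrically 4–5 days after application.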

In another data set the test system is Fusarium culmorum. In words: microbe, parasite or virus in culture. The data set is classed as cell-based. The conditions noted are these: read-out: disease control (inhibition of growth determined visually).
The subject of data set [5] is Mycosphaerella graminicola (Septoria tritici). In words: Mycosphaerella graminicola (Septoria tritici) / liquid culture (Septoria blotch). The data set is classed as cell-based. The following applies: Zymoseptoria tritici, PDB potato dextrose broth, 24° C., 4-5 days after application, read-out: disease control (inhibition of growth determined photometrically). Summed up: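 Conidia from cryostorage were suspended in potato dextrose broth and added to test compound in DMSO at 200 ppm in microtiter wells. Plates were incubated at 24° C and growth inhibition measured photometrically 4-5 days after application.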

In data set [6] the test system is Botryotinia fuckeliana (Botrytis cinerea). The data set is described as follows: Botryotinia fuckeliana (Botrytis cinerea) / liquid culture (gray mould). The data set is classed as cell-based. The conditions noted are these: Vogels broth, 24° C., 3-4 days after application, read-out: disease control (inhibition of growth determined photometrically). As for the experimental part: 10. Botryotinia fuckeliana (Botrytis cinerea)/Liquid Culture (Gray Mould): Conidia of the fungus from cryogenic storage were directly mixed into nutrient broth (Vogels broth). After placing a DMSO solution of test compound into a 96-well microtiter plate at an application rate of 200 ppm, the nutrient broth containing the fungal spores was added. The test plates were incubated at 24° C. and the inhibition of growth was determined photometrically 3-4 days after application.

Data set [7] deals with Puccinia recondita f. sp. tritici. The data set is described as follows: Puccinia recondita f. sp. tritici / wheat / leaf disc preventative (brown rust). The format is in vivo. The conditions noted are these: foliar, wheat leaf segments cv Kanzler, inoculated 1 day after application, assessed 7-9 days after application, read-out: disease control. From the text: 3. Puccinia recondita f. sp. tritici/Wheat/Leaf Disc Preventative (Brown Rust): Wheat leaf segments cultivated variety (cv) Kanzler were placed on agar in 24-well plates and sprayed with formulated test compound diluted in water at an application rate of 200 ppm. The leaf disks were inoculated with a spore suspension of the fungus 1 day after application.

In another data set the test system is Plasmopara viticola. In words: whole plant or invertebrate. The following applies: foliar, read-out: disease control. The data set is classed as in vivo.
Another data set deals with Phytophthora infestans. The data set is described as follows: whole plant or invertebrate. The format is in vivo. The following applies: in Solanum lycopersicum, foliar, read-out: disease control.

One may read the inhibition as the change of the read-out against control, counted positive when it falls. `Cc1csc(NC(=O)c2cc3c(cc2Cl)COB3O)n1` [Compound 147]: the inhibition at 200 ppm (with Sclerotinia sclerotiorum; in the data set on Pythium ultimum; in [1]; in data set [2]; in data set [3]) was ≥ 80% in each case.
Regarding `C=CCOC(=O)c1cc2c(cc1Cl)COB2O` [Compound 215], the inhibition at 200 ppm (in [4]; in the data set on Sclerotinia sclerotiorum; in the data set on Pythium ultimum; in data set [1]; in the data set on Gaeumannomyces graminis; with Fusarium culmorum) was ≥ 80% throughout. Further, the inhibition at 200 ppm in data set [2], in data set [5] and in data set [3] was ≥ 80% each time.
As a reminder, the melting point is the temperature of the solid-liquid transition. `O=C(OCC1CCC1)c1cc2c(cc1Cl)COB2O` [Compound 225] showed a melting point of 115 to 117 °C. Moreover, the inhibition at 200 ppm in [6] is ≥ 80%. Also, the inhibition at 200 ppm in [4] is ≥ 80%. Moreover, the inhibition at 200 ppm in the data set on Pythium ultimum is ≥ 80%. In addition, the inhibition at 200 ppm in data set [1] is ≥ 80%. Further, the inhibition at 200 ppm in the data set on Gaeumannomyces graminis is ≥ 80%. Moreover, in data set [2], the inhibition at 200 ppm is ≥ 80%. For the same compound, in data set [7], the pest or weed control at 200 ppm was ≥ 80%. Moreover, the inhibition at 200 ppm in [5] was ≥ 80%. Further, the inhibition at 200 ppm in data set [3] is ≥ 80%.
For the compound `CCCCCCCOC(=O)c1ccc2c(c1)B(O)OC2` [Compound 317], the inhibition at 200 ppm (in data set [6]; in data set [4]; with Pythium ultimum; in data set [1]; with Gaeumannomyces graminis; in data set [2]) was ≥ 80% in each case. The inhibition at 200 ppm in data set [5] and in data set [3] was ≥ 80% throughout. Besides, the pest or weed control at 200 ppm (with Plasmopara viticola; in data set [7]) was ≥ 80% in each case.
In the case of `CC#CCOC(=O)c1ccc2c(c1)B(O)OC2` [Compound 323], the melting point fell in the range of 154 to 155 °C. The inhibition at 200 ppm in data set [6] was ≥ 80%. Further, in data set [4], the inhibition at 200 ppm is ≥ 80%. In addition, in the data set with Plasmopara viticola, the pest or weed control at 200 ppm was ≥ 80%. In addition, in the data set with Pythium ultimum, the inhibition at 200 ppm was ≥ 80%. Further, the pest or weed control at 200 ppm in the data set on Phytophthora infestans was ≥ 80%. For the same compound, in data set [1], the inhibition at 200 ppm is ≥ 80%. Also, the inhibition at 200 ppm in the data set with Gaeumannomyces graminis is ≥ 80%. The inhibition at 200 ppm with Fusarium culmorum is ≥ 80%. Also, the inhibition at 200 ppm in [2] is ≥ 80%. Besides, the inhibition at 200 ppm in data set [5] was ≥ 80%.
Take `O=C(OCC#Cc1ccccc1)c1ccc2c(c1)B(O)OC2` [Compound 359]: the inhibition at 200 ppm (in data set [6]; in data set [4]; in the data set on Sclerotinia sclerotiorum; with Pythium ultimum; in data set [1]; in the data set on Gaeumannomyces graminis) was ≥ 80% in each case. In addition, the inhibition at 200 ppm (in the data set with Fusarium culmorum; in [2]; in data set [5]) was ≥ 80% each time. Also, the pest or weed control at 200 ppm with Plasmopara viticola is ≥ 80%.
As to `COC(=O)C#CCOC(=O)c1ccc2c(c1)B(O)OC2` [Compound 361], the inhibition at 200 ppm (in data set [6]; in [4]; with Sclerotinia sclerotiorum; in the data set on Pythium ultimum; in data set [1]; with Gaeumannomyces graminis) was ≥ 80% each time. Further, the inhibition at 200 ppm (in the data set on Fusarium culmorum; in data set [2]; in data set [5]; in [3]) was ≥ 80% throughout. Moreover, the pest or weed control at 200 ppm in the data set with Plasmopara viticola is ≥ 80%.
Turning to `O=C(OCCc1c(Cl)cccc1Cl)c1ccc2c(c1)B(O)OC2` [Compound 373], the inhibition at 200 ppm (in [6]; in data set [1]; with Gaeumannomyces graminis; in the data set on Fusarium culmorum; in [5]) was ≥ 80% throughout. For the same compound, in the data set with Plasmopara viticola, the pest or weed control at 200 ppm was ≥ 80%.
In the case of `O=C(OCc1cccc(F)c1)c1ccc2c(c1)B(O)OC2` [Compound 375], the melting point was 125 to 127 °C. In addition, in [6], the inhibition at 200 ppm is ≥ 80%. Besides, in data set [4], the inhibition at 200 ppm is ≥ 80%. In addition, the inhibition at 200 ppm in the data set with Sclerotinia sclerotiorum is ≥ 80%. In addition, the inhibition at 200 ppm in the data set with Pythium ultimum is ≥ 80%. The inhibition at 200 ppm in data set [1] is ≥ 80%. In addition, the inhibition at 200 ppm with Gaeumannomyces graminis is ≥ 80%. Further, the inhibition at 200 ppm in the data set on Fusarium culmorum is ≥ 80%. Further, the inhibition at 200 ppm in [2] was ≥ 80%. Further, the inhibition at 200 ppm in data set [5] was ≥ 80%. Besides, the inhibition at 200 ppm in [3] was ≥ 80%.
Take `CCC#CCOC(=O)c1cc2c(cc1F)COB2O` [Compound 379]: the inhibition at 200 ppm (in data set [4]; with Sclerotinia sclerotiorum; with Pythium ultimum; in data set [1]; in the data set on Gaeumannomyces graminis; in the data set on Fusarium culmorum) was ≥ 80% throughout. Moreover, the inhibition at 200 ppm in data set [2], in data set [5] and in data set [3] was ≥ 80% each time. Besides, the pest or weed control at 200 ppm with Plasmopara viticola is ≥ 80%.
With `C=CCCOC(=O)c1cc2c(cc1F)COB2O` [Compound 389], the melting point was 107 to 109 °C. The inhibition at 200 ppm in data set [4] was ≥ 80%. The inhibition at 200 ppm with Sclerotinia sclerotiorum was ≥ 80%. In addition, the inhibition at 200 ppm in the data set with Pythium ultimum was ≥ 80%. Further, the inhibition at 200 ppm in [1] was ≥ 80%. In the data set with Gaeumannomyces graminis, the inhibition at 200 ppm was ≥ 80%. For the same compound, in the data set with Fusarium culmorum, the inhibition at 200 ppm is ≥ 80%. The inhibition at 200 ppm in data set [2] is ≥ 80%. In addition, the inhibition at 200 ppm in data set [5] is ≥ 80%. Besides, in data set [3], the inhibition at 200 ppm is ≥ 80%.
On to `C=CCC(OC(=O)c1cc2c(cc1F)COB2O)C(=O)OC` (stereo not drawn) [Compound 410], for which the inhibition at 200 ppm (in data set [4]; in the data set on Sclerotinia sclerotiorum; in the data set with Pythium ultimum; in data set [1]; with Gaeumannomyces graminis) was ≥ 80% throughout. Moreover, in the data set on Plasmopara viticola, the pest or weed control at 200 ppm was ≥ 80%.
On to `O=C(OCC#Cc1ccccc1)c1cc2c(cc1F)COB2O` [Compound 422], for which the inhibition at 200 ppm (in data set [6]; in data set [4]; with Pythium ultimum; in [1]; with Gaeumannomyces graminis; in the data set with Fusarium culmorum) was ≥ 80% in each case. The inhibition at 200 ppm in data set [2] and in data set [5] was ≥ 80% in each case.
Consider `O=C(OCc1cccc(F)c1)c1cc2c(cc1F)COB2O` [Compound 434], for which the inhibition at 200 ppm (in [6]; in data set [4]; with Pythium ultimum; in [1]; with Gaeumannomyces graminis; in [2]) was ≥ 80% in each case. The inhibition at 200 ppm in [5] and in data set [3] was ≥ 80% each time. Moreover, the pest or weed control at 200 ppm in the data set with Plasmopara viticola was ≥ 80%.
In the case of `COC(COC(=O)c1cc2c(cc1Cl)COB2O)OC` [Compound 449], the melting point was 122 to 124 °C. The inhibition at 200 ppm in the data set on Sclerotinia sclerotiorum is ≥ 80%. For the same compound, the inhibition at 200 ppm in the data set with Pythium ultimum was ≥ 80%. The inhibition at 200 ppm in [1] is ≥ 80%. The inhibition at 200 ppm with Gaeumannomyces graminis was ≥ 80%. For the same compound, in the data set on Fusarium culmorum, the inhibition at 200 ppm is ≥ 80%. Moreover, the inhibition at 200 ppm in [2] was ≥ 80%. In addition, the inhibition at 200 ppm in [5] was ≥ 80%. Further, the inhibition at 200 ppm in data set [3] was ≥ 80%.
